Experimental data published in patent publication US20220340582A1, “CANNABINOID DERIVATIVES” (CANOPY GROWTH CORPORATION, priority 2019, published 2022).
Where two headings read alike, the source gives them in different places.

Legend:
human CB1 receptor = biological target: T1, human CB1 receptor (Homo sapiens, UniProt P21554); test: CB1 radioligand competitive binding assay ([3H]CP 55,940 displacement)
T1 construct: host or cells: CHO-K1

human CB2 receptor = biological target: T2, human CB2 receptor (Homo sapiens, UniProt P34972); test: CB2 radioligand competitive binding assay ([3H]CP 55,940 displacement); conditions: for Selectivity CB2: fold difference between CB1 and CB2 binding, printed in the column of the receptor with the higher binding affinity
T2 construct: host or cells: CHO-K1
T2 sequence (P34972 whole entry): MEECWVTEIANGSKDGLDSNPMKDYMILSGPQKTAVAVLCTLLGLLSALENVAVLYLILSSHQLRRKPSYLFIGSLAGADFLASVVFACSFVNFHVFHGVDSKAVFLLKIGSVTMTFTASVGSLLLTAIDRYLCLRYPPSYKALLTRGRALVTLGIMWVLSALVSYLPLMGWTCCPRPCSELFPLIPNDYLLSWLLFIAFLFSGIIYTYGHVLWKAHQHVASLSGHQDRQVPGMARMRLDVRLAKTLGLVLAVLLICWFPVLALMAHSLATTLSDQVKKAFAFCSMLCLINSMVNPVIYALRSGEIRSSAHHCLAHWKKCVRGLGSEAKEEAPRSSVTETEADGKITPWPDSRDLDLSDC
Experimental: Compounds of the present disclosure were tested for CB1 receptor binding affinity and for CB2 receptor binding affinity. As used herein, “binding affinity” is represented by the IC50 value, which was experimentally determined as described herein. The lower the IC50 value the higher the binding affinity.
The membranes were prepared from CHO-K1 (Chinese hamster ovary) cells stably transfected with the human CB2 receptor (Cat. #ES-111-C; Perkin Elmer, Boston, Mass.). The cells were grown adherently and maintained in Ham's F12 medium containing 10% fetal bovine serum (FBS), penicillin, streptomycin and geneticin (G418) at 37° C. in a humid atmosphere of 5% CO2 following the manufacturer's instructions.
For membrane preparation the cells were washed with PBS and scraped off the plates in cold homogenization buffer (25 mM HEPES (pH 7.4), 2 mM EDTA) containing protease inhibitor cocktail (Sigma Cat. #P8340). The cell suspension was homogenized with a Pro-PK-01200D Polytron Homogenizer (Pro Scientific) and then centrifuged for 30 min at 120,000×g. The supernatant was discarded and the pellet was re-suspended in the homogenization buffer and stored at −80° C. until the time of use.
In this experiment, 3H radiolabeled CP 55,940, i.e. [3H]CP 55,940 (Perkin Elmer, Boston, Mass.), was used as a radioligand for the CB2 receptor to determine the binding affinity of compounds for the CB2 receptor (Scheme 4; above).
The competition binding experiments (single dose and dose-response) were performed by incubating 0.6 nM of [3H]CP55,940 (specific activity 101 Ci/mmol, Perkin Elmer) and different concentrations of compounds disclosed herein with membranes prepared as above from CHO-K1 cells expressing human CB2 receptor (1 μg of protein/well), 50 mM Tris-HCl (pH 7.4), 5 mM MgCl2, 1 mM CaCl2, and 2 mg/mL BSA.
For the dose-response experiments the test compounds were sequentially diluted to provide the desired concentration range for the IC50 determination. In each case the compounds were pre-incubated with the membrane for 20 min, before adding the radioligand.
After incubation with the radioligand for 60 min at 37° C., the incubation was terminated by rapid filtration of assay mixture through MultiScreen®HTS^+96-well filter plates (Millipore, Cat. #MSFCNXB), pre-soaked for 60 min with 50 mM Tris-HCl (pH 7.4) containing 0.33% polyethylenimine (PEI). The nonspecific binding (NSB) was determined in the presence of 10 μM unlabelled CP55,940. After drying the filter plate at 50° C. for at least 60 min, the filter-bound radioactivity was determined by scintillation spectrometry using the 1450 MicroBeta Plate Counter (Perkin Elmer, Boston, MA).

[1] = 0.8 nM [3H]CP 55,940, CHO-K1 membranes expressing human CB1 receptor, dose-response, read-out: CB1 IC50
[2] = 0.6 nM [3H]CP55,940, CHO-K1 membranes expressing human CB2 receptor, dose-response, read-out: CB2 IC50

T1 sequence (P21554 whole entry): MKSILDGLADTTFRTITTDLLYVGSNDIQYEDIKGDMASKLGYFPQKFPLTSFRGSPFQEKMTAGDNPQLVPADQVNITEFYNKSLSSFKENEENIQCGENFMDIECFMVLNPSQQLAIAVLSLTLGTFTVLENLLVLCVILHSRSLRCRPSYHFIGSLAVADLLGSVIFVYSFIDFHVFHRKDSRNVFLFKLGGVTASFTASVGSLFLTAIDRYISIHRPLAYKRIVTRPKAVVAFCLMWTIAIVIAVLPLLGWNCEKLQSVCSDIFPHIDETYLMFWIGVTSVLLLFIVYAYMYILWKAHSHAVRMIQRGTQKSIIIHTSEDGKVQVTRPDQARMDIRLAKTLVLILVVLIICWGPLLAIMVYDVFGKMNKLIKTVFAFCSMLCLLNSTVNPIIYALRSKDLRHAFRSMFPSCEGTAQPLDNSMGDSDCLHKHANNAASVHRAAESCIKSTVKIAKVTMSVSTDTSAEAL

| SMILES | IC50 (human CB1 receptor) [nM] | IC50 (human CB2 receptor) [nM] | Selectivity CB2 (human CB2 receptor) [fold] | IC50 (human CB1 receptor; [1]) [nM] | IC50 (human CB2 receptor; [2]) [nM] | Selectivity CB1 (human CB1 receptor; fold difference between CB1 and CB2 binding, printed in the column of the receptor with the higher binding affinity) [fold] |
| --- | --- | --- | --- | --- | --- | --- |
| CCCCCc1cc2c(c(O)c1C(=O)NCC)[C@@H]1C=C(C)CC[C@H]1C(C)(C)O2 [Compound 3b, N-ethyl-1-hydroxy-6,6,9-trimethyl-3-pentyl-6a,7,8,10a-tetrahydro-6H-benzo[c]chromene-2-carboxamide] | 500 to 990 | 100 to 490 | 3.33 |  |  |  |
| CCCCCc1cc2c(c(O)c1C(=O)NC1CC1)[C@@H]1C=C(C)CC[C@H]1C(C)(C)O2 [Compound 6b, N-cyclopropyl-1-hydroxy-6,6,9-trimethyl-3-pentyl-6a,7,8,10a-tetrahydro-6H-benzo[c]chromene-2-carboxamide] | 100 to 490 | < 100 | 9.08 |  |  |  |
| CCCCCc1cc2c(c(O)c1C(=O)Nc1ccccc1)[C@@H]1C=C(C)CC[C@H]1C(C)(C)O2 [Compound 10b, 1-hydroxy-6,6,9-trimethyl-3-pentyl-N-phenyl-6a,7,8,10a-tetrahydro-6H-benzo[c]chromene-2-carboxamide] |  |  | 8.81 | < 100 | < 100 |  |
| CCCCCc1cc2c(c(O)c1C(=O)NCc1cccnc1)[C@@H]1C=C(C)CC[C@H]1C(C)(C)O2 [Compound 15b, 1-hydroxy-6,6,9-trimethyl-3-pentyl-N-(pyridin-3-ylmethyl)-6a,7,8,10a-tetrahydro-6H-benzo[c]chromene-2-carboxamide] |  |  | 19.07 | > 1000 | < 100 |  |
| CCCCCc1cc2c(c(O)c1C(=O)N1CCN(C(C)=O)CC1)[C@@H]1C=C(C)CC[C@H]1C(C)(C)O2 [Compound 36b, 1-(4-(1-hydroxy-6,6,9-trimethyl-3-pentyl-6a,7,8,10a-tetrahydro-6H-benzo[c]chromene-2-carbonyl)piperazin-1-yl)ethan-1-one] | > 1000 | > 1000 |  |  |  | 1.10 |
| CCCCCc1cc2c(c(O)c1C(=O)N1CCOCC1)[C@@H]1C=C(C)CC[C@H]1C(C)(C)O2 [Compound 39b, (1-hydroxy-6,6,9-trimethyl-3-pentyl-6a,7,8,10a-tetrahydro-6H-benzo[c]chromen-2-yl)(morpholino)methanone] | 100 to 490 | 100 to 490 | 1.53 |  |  |  |
| CCCCCc1cc2c(c(O)c1C(=O)N1CCCC1)[C@@H]1C=C(C)CC[C@H]1C(C)(C)O2 [Compound 41b, (1-hydroxy-6,6,9-trimethyl-3-pentyl-6a,7,8,10a-tetrahydro-6H-benzo[c]chromen-2-yl)(pyrrolidin-1-yl)methanone] | 100 to 490 | 100 to 490 | 2.06 |  |  |  |
| CCCCCc1cc2c(c(O)c1C(=O)N1Cc3ccccc3C1)[C@@H]1C=C(C)CC[C@H]1C(C)(C)O2 [Compound 43b, (1-hydroxy-6,6,9-trimethyl-3-pentyl-6a,7,8,10a-tetrahydro-6H-benzo[c]chromen-2-yl)(isoindolin-2-yl)methanone] | > 1000 | 100 to 490 | 8.33 |  |  |  |
| CCCCCc1cc2c(c(O)c1C(=O)N(CC)CC)[C@@H]1C=C(C)CC[C@H]1C(C)(C)O2 [Compound 50b, N,N-diethyl-1-hydroxy-6,6,9-trimethyl-3-pentyl-6a,7,8,10a-tetrahydro-6H-benzo[c]chromene-2-carboxamide] | 100 to 490 | < 100 | 4.38 |  |  |  |
| CCCc1cc2c(c(O)c1C(=O)NC)[C@@H]1C=C(C)CC[C@H]1C(C)(C)O2 [Compound 58b, 1-hydroxy-N,6,6,9-tetramethyl-3-propyl-6a,7,8,10a-tetrahydro-6H-benzo[c]chromene-2-carboxamide] | > 1000 | > 1000 | 6.87 |  |  |  |
